Data: PubChem BioAssay AID330 (DTP/NCI, 2004)
Values joined by “and” are separate entries in the source; they are usually repeats but may differ in a detail not shown here. Equal entries are not always repeated. Inconclusive results and toxic doses are left out. How the source made its calls: active means survival T/C of 150% or more; inactive means T/C below 125% in these data. Peptide text beside a SMILES is read from it. * marks the point of attachment. Boc = CC(C)(C)OC(=O)*

Test system: P388 leukemia ip, CD2F1 mice, survival T/C
Test: NCI In Vivo Anticancer Drug Screen. Data for tumor model P388 Leukemia (intraperitoneal) in CD2F1 (CDF1) mice
Details: endpoint: median survival time, higher = longer survival
Outline: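 Mice carrying the transplanted tumor received test compound or vehicle. Survival was recorded in each group, and the value is the treated-group measurement divided by that of the vehicle-treated control group.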

[1] = dose: 60.0 mg/kg/injection, schedule: Q01DX005 (ip), vehicle: saline with Tween-80
[2] = dose: 120.0 mg/kg/injection, schedule: Q01DX005 (ip), vehicle: saline with Tween-80
[3] = dose: 240.0 mg/kg/injection, schedule: Q01DX005 (ip), vehicle: saline with Tween-80
[4] = dose: 50.0 mg/kg/injection, schedule: Q01DX009 (ip), vehicle: saline with Tween-80
[5] = dose: 100.0 mg/kg/injection, schedule: Q01DX009 (ip), vehicle: saline with Tween-80
[6] = dose: 200.0 mg/kg/injection, schedule: Q01DX009 (ip), vehicle: saline with Tween-80
[7] = dose: 50.0 mg/kg/injection, schedule: Q01DX005 (ip), vehicle: saline
[8] = dose: 100.0 mg/kg/injection, schedule: Q01DX005 (ip), vehicle: saline

Measured: T/C

COC(=O)/C(=C/c1ccccc1)N=[N+]=[N-]
inactive: [1] 107 % of control | [2] 110 % of control | [3] 117 % of control

O=C1CC2(C(=O)O1)c1ccccc1-c1ccccc12
inactive: [1] 111 % of control | [2] 105 % of control | [3] 112 % of control

O=c1c2cc3c(cc2c2cc([N+](=O)[O-])cc4c2n1CC4)OCO3
inactive: dose: 25.0 mg/kg/injection, schedule: Q01DX009 (ip), vehicle: other 98 % of control | dose: 50.0 mg/kg/injection, schedule: Q01DX009 (ip), vehicle: other 92 % of control | dose: 100.0 mg/kg/injection, schedule: Q01DX009 (ip), vehicle: other 90 % of control | dose: 200.0 mg/kg/injection, schedule: Q01DX009 (ip), vehicle: other 100 % of control | dose: 400.0 mg/kg/injection, schedule: Q01DX009 (ip), vehicle: other 104 % of control

Cc1cc2ncn(C(=O)Nc3ccccc3)c2cc1C
inactive: dose: 100.0 mg/kg/injection, schedule: Q04DX003 (ip), vehicle: saline with Tween-80 100 % of control | dose: 200.0 mg/kg/injection, schedule: Q04DX003 (ip), vehicle: saline with Tween-80 90 % of control | dose: 400.0 mg/kg/injection, schedule: Q04DX003 (ip), vehicle: saline with Tween-80 90 % of control

COc1cc(C(Nc2ncccn2)c2cc3c(cc2OC(C)=O)OCO3)cc(OC)c1OC(C)=O (stereo unspecified)
inactive: [1] 105 % of control | [2] 100 % of control | [3] 99 % of control

N#C/C(=C/c1ccccc1)c1ccccc1
inactive: [4] 87 % of control | [5] 88 % of control | [6] 88 % of control | dose: 400.0 mg/kg/injection, schedule: Q01DX009 (ip), vehicle: saline with Tween-80 102 % of control

CC(NC(=O)OCc1ccccc1)C(=O)Oc1ccccc1[N+](=O)[O-] (stereo unspecified)
inactive: [4] 96 % of control | [5] 103 % of control | [6] 105 % of control

O=C(CNC(=O)Nc1ccc(Cl)c(Cl)c1)N/N=C/c1ccc2c(c1)OCO2
inactive: [4] 91 % of control | [5] 90 % of control | [6] 89 % of control

CCOC(=O)c1oc2cc(O)ccc2c(=O)c1-c1ccc(OC)c(OC)c1
inactive: [1] 96 % of control | [2] 87 % of control | [3] 86 % of control

CC(C)(C)C(=O)OCCOCCOC(=O)c1ccccc1
inactive: dose: 50.0 mg/kg/injection, schedule: Q01DX009 (ip), vehicle: Klucel (hydroxypropylcellulose) (HPC) 95 % of control | dose: 100.0 mg/kg/injection, schedule: Q01DX009 (ip), vehicle: Klucel (hydroxypropylcellulose) (HPC) 104 % of control | dose: 200.0 mg/kg/injection, schedule: Q01DX009 (ip), vehicle: Klucel (hydroxypropylcellulose) (HPC) 102 % of control

O=C(O)/C=C\C(=O)ONCc1ccccc1
inactive: dose: 50.0 mg/kg/injection, schedule: Q01DX005 (ip), vehicle: saline with Tween-80 106 % of control | dose: 100.0 mg/kg/injection, schedule: Q01DX005 (ip), vehicle: saline with Tween-80 106 % of control | dose: 200.0 mg/kg/injection, schedule: Q01DX005 (ip), vehicle: saline with Tween-80 106 % of control

CCN(CC)CCOc1ccc(-c2cc(-c3ccccc3)nc(N)n2)cc1
inactive: dose: 25.0 mg/kg/injection, schedule: Q01DX005 (ip), vehicle: saline 106 % of control | [7] 98 % of control and 100 % of control and 106 % of control | [8] 111 % of control and 114 % of control and 123 % of control

CC(=O)[O][Sn]([c]1ccccc1)([c]1ccccc1)[c]1ccccc1
inactive: dose: 0.25 mg/kg/injection, schedule: Q04DX003 (ip), vehicle: saline with Tween-80 104 % of control | dose: 0.5 mg/kg/injection, schedule: Q04DX003 (ip), vehicle: saline with Tween-80 109 % of control | dose: 125.0 micrograms/kg/injection, schedule: Q01DX009 (ip), vehicle: saline with Tween-80 100 % of control | dose: 250.0 micrograms/kg/injection, schedule: Q01DX009 (ip), vehicle: saline with Tween-80 109 % of control | dose: 500.0 micrograms/kg/injection, schedule: Q01DX009 (ip), vehicle: saline with Tween-80 109 % of control

Fc1ccc(NC(=S)SCc2ccccc2)cc1
inactive: dose: 50.0 mg/kg/injection, schedule: Q01DX009 (ip), vehicle: suspension in saline 101 % of control | dose: 100.0 mg/kg/injection, schedule: Q01DX009 (ip), vehicle: suspension in saline 101 % of control | dose: 200.0 mg/kg/injection, schedule: Q01DX009 (ip), vehicle: suspension in saline 101 % of control

Cc1cccc(C)c1NC(=O)Nc1cccc(C#N)c1
inactive: dose: 15.0 mg/kg/injection, schedule: Q01DX005 (ip), vehicle: saline with Tween-80 91 % of control | dose: 30.0 mg/kg/injection, schedule: Q01DX005 (ip), vehicle: saline with Tween-80 95 % of control | [1] 91 % of control | [3] 89 % of control

CN1C(=O)N(C)[C@@H]2CC(=O)c3ccc(C(F)(F)F)cc3N2C1=O
inactive: dose: 60.0 mg/kg/injection, schedule: Q01DX005 (ip), vehicle: Klucel (hydroxypropylcellulose) (HPC) 101 % of control | dose: 120.0 mg/kg/injection, schedule: Q01DX005 (ip), vehicle: Klucel (hydroxypropylcellulose) (HPC) 107 % of control | dose: 240.0 mg/kg/injection, schedule: Q01DX005 (ip), vehicle: Klucel (hydroxypropylcellulose) (HPC) 103 % of control

Cc1cc(Cl)ccc1NC(=O)C1C(=O)N(c2ccc(Cl)cc2C)C(=O)/C1=N\NC(N)=O (stereo unspecified)
inactive: [1] 101 % of control | [2] 93 % of control | [3] 98 % of control

CCN(CC)Cc1c(O)ccc(C(C)=O)c1O
inactive: [7] 89 % of control | [8] 100 % of control

C[n+]1c2ccccc2cc2ccccc21
inactive: dose: 25.0 mg/kg/injection, schedule: Q04DX003 (ip), vehicle: saline with Tween-80 86 % of control

CSCCC(NC(=O)OC(C)(C)C)C(=O)NC(CCSC)C(=O)NC(C)C(=O)O (stereo not drawn) (Boc-Met-Met-Ala-OH; configuration not given here)
inactive: dose: 50.0 mg/kg/injection, schedule: Q01DX005 (ip), vehicle: Klucel (hydroxypropylcellulose) (HPC) 98 % of control | dose: 100.0 mg/kg/injection, schedule: Q01DX005 (ip), vehicle: Klucel (hydroxypropylcellulose) (HPC) 102 % of control | dose: 200.0 mg/kg/injection, schedule: Q01DX005 (ip), vehicle: Klucel (hydroxypropylcellulose) (HPC) 102 % of control

COCC(=O)c1ccc(C#N)cc1
inactive: dose: 100.0 mg/kg/injection, schedule: Q04DX003 (ip), vehicle: saline 100 % of control | dose: 200.0 mg/kg/injection, schedule: Q04DX003 (ip), vehicle: saline 100 % of control | dose: 400.0 mg/kg/injection, schedule: Q04DX003 (ip), vehicle: saline 100 % of control

CCCCNC(c1ccc(N(CC)CC)cc1)C(Cl)(Cl)Cl (stereo unspecified)
inactive: [7] 105 % of control and 106 % of control | dose: 50.0 mg/kg/injection, schedule: Q01DX005 (ip), vehicle: water 100 % of control | [8] 108 % of control and 116 % of control | dose: 100.0 mg/kg/injection, schedule: Q01DX005 (ip), vehicle: water 93 % of control | dose: 200.0 mg/kg/injection, schedule: Q01DX005 (ip), vehicle: saline 110 % of control
